The values below come from US11325883B2, “Functionalized N,N-dialkylamino phenyl ethers and their method of use” (Temple University—Of The Commonwealth System of Higher …, priority 2017, dated 2022).

Experiment [1] deals with Gaucher patient fibroblasts (L444P/L444P, GM08760). Nature of the experiment: GPN induced calcium release phenotypic assay on Gaucher patient cells. Format: cell-based, human. The settings on record: for Maximal % Change in GPN Response / EC50: Gaucher patient cells, 72 hours compound treatment; for Maximal % Change in GPN Response: GPN response with drug/without drug x100; for EC50: Homo sapiens, Fibroblast, 12-point curve in triplicate. From the text:
Phenotypic Assay: A phenotypic cellular assay utilizing lysosomal storage disorder (LSD) patient derived cells was developed to identify compounds with disease modifying activity to reverse or attenuate the disease phenotype to non-disease levels. […] This functional readout of the LSD diseased state was developed into a high throughput screening assay.
Disruption of lysosomal calcium homeostasis has been linked to the pathophysiology of lysosomal storage disorders including Gaucher disease (Lloyd-Evans, E, Morgan A J, He X, Smith D A, Elliot-Smith E, Sillence D J, Churchill G C, Schuchman E H, Galione A, Platt F M. (2008) Niemann-Pick disease type C1 is a sphingosine storage disease that causes deregulation of lysosomal calcium. Nat Med. 14(11):1247-55. Lloyd-Evans E, Platt F M. (2011) Lysosomal Ca(^2+) homeostasis: role in pathogenesis of lysosomal storage diseases. Cell Calcium. 50(2):200-205. Morgan, A J, Platt, F M, Lloyd-Evans, E and Galione, A (2011) Molecular mechanism of endolysosomal Ca^2+ signaling in health and disease. Biochem. J. 439:349-374.). Calcium release from acidic lysosomal stores can be induced by addition of Gly-Phe-β-napthylamide (GPN), a substrate of cathepsin C, which upon hydrolysis, produces osmotic lysis of lysosomes and release of calcium specifically from lysosomal acidic stores into the cytosol. The increase of intracellular calcium released from lysosomes can be detected with cell membrane permeable calcium sensitive indicators.
(§1) Cells (800 cells/well) were plated with a MultiFlo dispenser (BioTek) and cultured for 24 h at 37° C., 5% CO2. The screening compounds were then added to cells under sterile conditions and continued in culture for 72 hours. Cells were loaded with Screen Quest™ Fluo-8 No Wash Calcium mix (ATT Bio) and analyzed for changes in response to GPN. The data from each well were normalized with basal fluorescence by dividing the maximum fluorescence over the entire real time reading by the initial basal fluorescence. […] EC50 and Hill slope values are determined using a four-parameter dose-response (variable slope) equation in GraphPad Prism. The % change in GPN response is calculated as the ratio of GPN response measured in the presence of drug/GPN response measured in the absence of drug×100. […] The maximal % change in GPN response is calculated as the ratio of GPN response measured in the presence of drug/GPN response measured in the absence of drug×100.
Gaucher patient fibroblasts (Coreill Institute, GM08760) were cultured in EMEM with 15% FBS, 1% Pen/Strep at 37° C./5% CO2. Wild-type patient fibroblasts (Coriell Institute, GM 005659) were used as a control cell line. Cells are plated with a MultiFlo dispenser (800 cells/well in 30 μL of complete growth media) in black/clear bottom 384-well plates and cultured for 24 hours at 37° C., 5% CO2. Compounds of the disclosure are then added to the cells (12 point dose response curve, 150 nM to 30 uM final compound concentration using a 5.0 μL of a 7× stock solution (1.05 μM to 210 μM)) under sterile conditions and continued in culture for 72 hours at 37° C., 5% CO2. For intracellular calcium measurements, media is removed and 20 μL of calcium dye mixture (Screen Quest™ Fluo-8 No Wash Calcium mix, ATT Bioquest) is added to each well, incubated for 30 minutes at 37° C., followed by 22° C. for 30 minutes.

Experiment [2] has as its system Wild-type patient fibroblasts (GM 005659). The settings on record: wild type cells. Here is the method:
as §1
Gaucher patient fibroblasts (Coreill Institute, GM08760) were cultured in EMEM with 15% FBS, 1% Pen/Strep at 37° C./5% CO2. Wild-type patient fibroblasts (Coriell Institute, GM 005659) were used as a control cell line. […] The data from each well were normalized with basal fluorescence by dividing the maximum fluorescence over the entire real time reading by the initial basal fluorescence.

Turning to `CN(C)CCOc1ccc(C(=O)Cc2ccccc2-c2ccc(F)cc2)cc1` [Example 1, 1-(4-(2-(Dimethylamino)ethoxy)phenyl)-2-(4′-fluoro-[1,1′-biphenyl]-2-yl)ethanone], in experiment [1], the “Maximal % Change in GPN Response” value amounted to 250% and the EC50 amounted to 3600 nM.
As to `CN(C)CCOc1ccc(C(=O)Cc2ccccc2-c2ccccc2Cl)cc1` [Example 2, 2-(2′-Chloro-[1,1′-biphenyl]-2-yl)-1-(4-(2-(dimethylamino)ethoxy)phenyl)ethanone], in experiment [1], the “Maximal % Change in GPN Response” value turned out to be 160% and the EC50 stood at 1800 nM.
As for `CC(C)CC(C(=O)c1ccc(OCCN(C)C)cc1)c1ccccc1-c1ccc(F)cc1` (centres unmarked) [Example 3, 1-(4-(2-(dimethylamino)ethoxy)phenyl)-2-(4′-fluoro-[1,1′-biphenyl]-2-yl)-4-methylpentan-1-one], in experiment [1], the “Maximal % Change in GPN Response” value is 400% and the EC50 came to 185 nM.
Take `CN(C)CCOc1ccc(C(=O)C(CC2CC2)c2ccccc2-c2ccc(F)cc2)cc1` (centres unmarked) [Example 4, 3-cyclopropyl-1-(4-(2-(dimethylamino)ethoxy)phenyl)-2-(4′-fluoro-[1,1′-biphenyl]-2-yl)propan-1-one]: in experiment [1], the “Maximal % Change in GPN Response” value was 360% and the EC50 was found to be 475 nM.
For `CCC(C(=O)c1ccc(OCCN(C)C)cc1)c1ccccc1-c1ccc(F)cc1` (centres unmarked) [Example 5, 1-(4-(2-(dimethylamino)ethoxy)phenyl)-2-(4′-fluoro-[1,1′-biphenyl]-2-yl)butan-1-one], in that order: 630% and 266 nM.
For `CCCC(C(=O)c1ccc(OCCN(C)C)cc1)c1ccccc1-c1ccc(F)cc1` (centres unmarked) [Example 6, 1-(4-(2-(dimethylamino)ethoxy)phenyl)-2-(4′-fluoro-[1,1′-biphenyl]-2-yl)pentan-1-one], in that order: 410% and 424 nM.
On to `CCC(C(=O)c1ccc(OCCNC)cc1)c1ccccc1-c1ccc(F)cc1` (centres unmarked) [Example 7, 2-(4′-fluoro-[1,1′-biphenyl]-2-yl)-1-(4-(2-(methylamino)ethoxy)phenyl)butan-1-one], for which, in experiment [1], the “Maximal % Change in GPN Response” value is listed as 515% and the EC50 worked out at 425 nM.
Take `CCCC(C(=O)c1ccc(OCCNC)cc1)c1ccccc1-c1ccc(F)cc1` (centres unmarked) [Example 8, 2-(4′-fluoro-[1,1′-biphenyl]-2-yl)-1-(4-(2-(methylamino)ethoxy)phenyl)pentan-1-one]: in experiment [1], the “Maximal % Change in GPN Response” value is listed as 330% and the 50% effective concentration (EC50) was 356 nM.
For `CNCCOc1ccc(C(=O)C(CC(C)C)c2ccccc2-c2ccc(F)cc2)cc1` (centres unmarked) [Example 9, 2-(4′-fluoro-[1,1′-biphenyl]-2-yl)-4-methyl-1-(4-(2-(methylamino)-ethoxy)phenyl)pentan-1-one], in that order: 617% and 236 nM.
Take `CC/C(=C(\c1ccccc1)c1ccc(OCCN(C)C)cc1)c1ccccc1` [Tamoxifen, reference compound]: the “increase in calcium response” value in experiment [1] (compared with 0.1% DMSO treated Gaucher patient cells) turned out to be 200±50%. Also, the “increase in GPN-induced calcium response” value in experiment [2] is 30+/−20%.
